Several values for one entry are separate records, joined by “and”; a condition that tells them apart may be missing. Identical values can stand only once.
How the values were obtained:
Settings in all cases: 25 °C
[1] = molecular target: T1, Phosphoenolpyruvate carboxykinase, cytosolic [GTP] (Rattus norvegicus, UniProt P07379); assay: PEPCK Assay (OAA to PEP-allosteric)
T1 sequence (P07379 whole entry): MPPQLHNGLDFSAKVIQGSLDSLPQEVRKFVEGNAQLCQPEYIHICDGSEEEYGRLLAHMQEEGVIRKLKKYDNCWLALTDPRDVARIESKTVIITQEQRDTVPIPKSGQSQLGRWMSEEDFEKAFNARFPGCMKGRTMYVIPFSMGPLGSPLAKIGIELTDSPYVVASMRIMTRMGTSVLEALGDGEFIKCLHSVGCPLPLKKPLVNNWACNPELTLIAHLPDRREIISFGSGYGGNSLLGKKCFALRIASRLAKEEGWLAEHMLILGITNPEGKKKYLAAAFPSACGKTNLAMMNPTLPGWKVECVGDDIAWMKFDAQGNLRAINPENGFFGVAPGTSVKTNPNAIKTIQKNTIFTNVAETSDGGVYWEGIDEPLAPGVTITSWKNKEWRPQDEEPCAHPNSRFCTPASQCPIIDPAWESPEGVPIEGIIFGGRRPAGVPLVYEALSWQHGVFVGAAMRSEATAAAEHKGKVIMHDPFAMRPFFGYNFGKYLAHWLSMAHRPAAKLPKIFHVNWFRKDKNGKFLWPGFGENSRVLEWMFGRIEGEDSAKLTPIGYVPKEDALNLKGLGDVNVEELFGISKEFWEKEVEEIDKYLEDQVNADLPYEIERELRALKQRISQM
Experimental: (§1) Allosteric binding site. The activity of PEPCK in the direction from OAA to PEP was assayed with 50 mM HEPES (pH 7.5), 10 mM DTT, 4 mM MgCl2, 0.5 mM GTP, 1 mM ADP, 187.5 μM NADH, 45 units of LDH, 50 μg of PK, 0.2 mM MnCl2, and (∼1−2 μg) of PEPCK. The assay mixture was incubated for 5 min at 25 °C and the reaction started with the addition of OAA to a final concentration of 350 μM. A second reaction without PEPCK was run simultaneously to account for the spontaneous decarboxylation of OAA. Inhibition assays with MPA were conducted under both variable OAA and variable GTP concentrations. When the GTP concentration was varied, MgCl2 concentrations were also varied to keep a constant 4:1 metal:nucleotide ratio.

[2] = molecular target: T1, Phosphoenolpyruvate carboxykinase, cytosolic [GTP]; assay: PEPCK Assay (PEP to OAA-allosteric)
Experimental: (§2) Allosteric binding site. When the enzyme was assayed in the direction of PEP →OAA, the standard reaction mixture contained 50 mM HEPES (pH 7.5), 2mMMnCl2, 10mMDTT, 0.5mMGDP, 2mMPEP, 187.5 μM NADH, 50 mM KHCO3, and 11 units of MDH. The reaction proceeded at 25 °C and was started with the addition of PEPCK (∼1−2 μg). Mutants were assayed as previously described with the exception that ~30 μg of enzyme was used to initiate the assay.14 Inhibition assays with MPA were conducted with varying concentrations of PEP with a fixed GDP concentration of 500 or 25 μM. Inhibition assays against GDP were conducted at a fixed concentration of PEP of 2 or 5 mM.

[3] = molecular target: T1, Phosphoenolpyruvate carboxykinase, cytosolic [GTP]; assay: PEPCK Assay (OAA to PEP)
Experimental: as §1, with “OAA/PEP” for “Allosteric”

[4] = molecular target: T1, Phosphoenolpyruvate carboxykinase, cytosolic [GTP]; assay: PEPCK Assay (PEP to OAA)
Experimental: as §2, with “OAA/PEP” for “Allosteric”

## O=C(O)c1ncccc1S [3-Mercaptopicolinic acid (MPA)]
[1]
  Ki: 121 µM
[2]
  Ki: 180 µM and 83 µM
[3]
  Ki: 45 µM
[4]
  Ki: 83 µM and 37 µM

Source: BindingDB's records for doi:10.1021/acs.biochem.5b00822 (The University of Kansas Medical Center, 2015)
